Measured values: US9255103B2, “Substituted pyrazolo[1,5-a]pyrazines as mGluR5 receptor modulators” (Vanderbilt University, priority 2010, dated 2016)
Where two headings read alike, the source gives them in different places.

Key:
human mGluR5a receptor = human mGluR5a receptor (Homo sapiens, UniProt P41594); assay: Cell-based functional Ca2+ mobilization assay (FDSS), potentiation of glutamate EC20 response in H10H cell line; details: for Emax: percent of maximal glutamate response, human mGluR5 HEK cells; for pEC50 / EC50: HEK cells transfected with human mGluR5 (H10H), presence of glutamate EC20; for pEC50: concentration in mol/L; for EC50: read-out: EC50
Protocol: Human embryonic kidney (HEK) cells transfected with rat mGluR5 were plated in clear bottom assay plates for assay in a Functional Drug Screening System (FDSS). In the alternative assay, HEK cells transfected with human mGluR5 (H10H cell line) were plated for assay in the FDSS. […] The cells were loaded with a Ca^2+-sensitive fluorescent dye (e.g., Fluo-4), and the plates were washed and placed in the FDSS instrument. After establishment of a fluorescence baseline for twelve seconds, the compounds of the present invention were added to the cells, and the response in cells was measured. Alternatively, in various further aspects, after establishment of a fluorescence baseline for about three seconds, the compounds of the present invention were added to the cells, and the response in cells was measured. Five minutes later, an mGluR5 agonist (e.g., glutamate, 3,5-dihydroxyphenylglycine, or quisqualate) was added to the cells, and the response of the cells was measured.
The above described assay operated in two modes. In the first mode, a range of concentrations of the present compounds were added to cells, followed by a single fixed concentration of agonist. If a compound acted as a potentiator, an EC50 value for potentiation and a maximum extent of potentiation by the compound at this concentration of agonist was determined by non-linear curve fitting. In the second mode, several fixed concentrations of the present compounds were added to various wells on a plate, followed by a range of concentrations of agonist for each concentration of present compound; the EC50 values for the agonist at each concentration of compound were determined by non-linear curve fitting. A decrease in the EC50 value of the agonist with increasing concentrations of the present compounds (a leftward shift of the agonist concentration-response curve) is an indication of the degree of mGluR5 potentiation at a given concentration of the present compound. An increase in the EC50 value of the agonist with increasing concentrations of the present compounds (a rightward shift of the agonist concentration-response curve) is an indication of the degree of mGluR5 antagonism at a given concentration of the present compound. The second mode also indicates whether the present compounds also affect the maximum response to mGluR5 to agonists.
The mGluR5 activity was determined using the metabotropic glutamate receptor activity assays in human embryonic kidney cells as described herein, wherein the human embryonic kidney cells were transfected with human mGluR5. The compounds in Table 1 were synthesized with methods identical or analogous to those shown herein. The requisite starting materials were commercially available, described in the literature, or readily synthesized by one skilled in the art of organic synthesis.
Human mGluR5a cDNA in pCMV6-XL6 mammalian expression plasmid was purchased from OriGene Technologies, Inc. (catalogue number SC326357) and subcloned into pcDNA3.1(−). Human embryonic kidney (HEK)293A cells were then transfected with human mGluR5a pcDNA3.1(−) using LipofectAmine2000 (Invitrogen) and monoclones were selected and tested for functional response using a Ca^2+ mobilization assay. Monoclones were named for the species (“H” for human) plus the location on the plate (e.g. “10H”).
HEK cells transfected with the human mGluR5a receptor (H10H cell line) were plated at 15,000 cells/well in clear-bottomed poly-D-lysine-coated assay plates (BD Falcon) in glutamate-glutamine-free growth medium and incubated overnight at 37° C. and 5% CO2. The following day, the growth medium was removed and the cells were washed with assay buffer containing 1× Hank's balanced salt solution (Invitrogen, Carlsbad, Calif.), 20 mM HEPES, 2.5 mM probenecid, pH 7.4 and left with 20 μL of this reagent.

male Sprague-Dawley rats = assay: Reversal of amphetamine-induced hyperlocomotion in rats; type: in vivo, rat; details: oral gavage, doses as in FIG. 4; amphetamine sulfate 1 mg/kg sc; data only in FIG. 4
Protocol: Locomotor activity was assessed as mean distance traveled (cm) in standard 16×16 photocell testing chambers measuring 43.2 cm (Length)×43.2 cm (Width)×30.5 cm (Height) (Med Associates, St. Albans, Vt.). Animals were habituated to individual activity chambers for at least 30 min prior to drug administration. Following administration of drug or vehicle, activity was recorded for a 90 minute time period. Data was expressed as the mean (±SEM) distance traveled recorded in 5 min intervals over the test period. The data was analyzed using repeated measures analysis of variance (ANOVA) followed by post-hoc testing using Dunnett's test, when appropriate. A difference was considered significant when p≦0.05. […]
The animals were habituated in Smart Open Field locomotor activity test chambers (Hamilton-Kinder, San Diego, Calif.) with 16×16 photobeams to automatically record locomotor activity for 30 min and then dosed with vehicle or test compound. […] At 60 min, all rats were injected subcutaneously with 1 mg/kg amphetamine or vehicle and then monitored for an additional 60 min. Animals are monitored for a total of 120 minutes. Data are expressed as changes in ambulation defined as total number of beam breaks per 5 min periods.
The data for the dose-response studies were analyzed by a between-group analysis of variance. […]

[1] = HEK293, maximum average response at a single concentration, read-out: Emax
[2] = maximum average response at a single concentration

Sequence of human mGluR5a receptor (P41594 21-1180 isoform P41594-2 limits assumed): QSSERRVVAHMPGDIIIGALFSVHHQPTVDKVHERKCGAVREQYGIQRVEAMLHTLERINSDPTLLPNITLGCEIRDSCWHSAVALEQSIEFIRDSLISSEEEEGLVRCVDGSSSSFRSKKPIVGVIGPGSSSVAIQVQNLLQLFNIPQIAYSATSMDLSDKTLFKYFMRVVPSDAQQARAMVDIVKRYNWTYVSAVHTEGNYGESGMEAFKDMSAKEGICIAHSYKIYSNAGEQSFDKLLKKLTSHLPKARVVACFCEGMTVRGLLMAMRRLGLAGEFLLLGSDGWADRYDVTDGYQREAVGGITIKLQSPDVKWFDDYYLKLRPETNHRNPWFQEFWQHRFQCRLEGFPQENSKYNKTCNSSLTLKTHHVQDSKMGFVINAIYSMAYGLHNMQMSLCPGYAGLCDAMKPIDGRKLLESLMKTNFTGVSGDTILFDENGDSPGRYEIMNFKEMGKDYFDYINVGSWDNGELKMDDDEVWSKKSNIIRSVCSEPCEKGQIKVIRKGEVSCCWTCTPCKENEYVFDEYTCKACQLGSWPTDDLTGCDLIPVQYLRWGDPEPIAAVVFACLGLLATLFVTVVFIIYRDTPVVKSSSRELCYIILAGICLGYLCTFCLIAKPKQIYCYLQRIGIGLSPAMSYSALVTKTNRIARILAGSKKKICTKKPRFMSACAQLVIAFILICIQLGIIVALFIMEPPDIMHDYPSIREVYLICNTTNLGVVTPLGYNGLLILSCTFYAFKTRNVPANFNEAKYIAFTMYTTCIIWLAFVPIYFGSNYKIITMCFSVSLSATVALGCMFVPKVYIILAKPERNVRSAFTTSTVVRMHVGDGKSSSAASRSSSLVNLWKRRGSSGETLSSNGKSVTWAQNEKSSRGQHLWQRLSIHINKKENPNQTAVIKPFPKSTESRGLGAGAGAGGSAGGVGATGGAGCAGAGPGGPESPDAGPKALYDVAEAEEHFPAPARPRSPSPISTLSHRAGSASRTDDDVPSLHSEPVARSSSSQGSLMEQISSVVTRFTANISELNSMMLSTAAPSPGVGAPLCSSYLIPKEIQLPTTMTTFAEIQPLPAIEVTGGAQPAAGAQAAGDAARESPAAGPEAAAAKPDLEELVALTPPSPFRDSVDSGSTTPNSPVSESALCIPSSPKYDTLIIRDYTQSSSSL

## N#Cc1cc(C(=O)N2CCn3nc(COc4ccccc4)cc3C2)ccc1F [Compound 28]
Human mGluR5a receptor; [1]
  Emax: 81%
Human mGluR5a receptor
  pEC50: 5.78
  EC50: 1660 nM
other
  melting point: 133.3 °C

## O=C(c1ncccc1Cl)N1CCn2nc(COc3ccccc3)cc2C1 [Compound 29]
Human mGluR5a receptor; [1]
  Emax: 47%
Human mGluR5a receptor
  pEC50: <5.00
  EC50: > 10000 nM
other
  melting point: 60 °C

## N#Cc1cccc(C(=O)N2CCn3nc(COc4cccc(F)c4)cc3C2)c1 [Compound 30]
Human mGluR5a receptor; [1]
  Emax: 59%
Human mGluR5a receptor
  pEC50: 6.48
  EC50: 331 nM
other
  melting point: 101.5 °C

## N#Cc1cc(F)cc(C(=O)N2CCn3nc(COc4cccc(F)c4)cc3C2)c1 [Compound 31]
Human mGluR5a receptor; [1]
  Emax: 54%
Human mGluR5a receptor
  pEC50: 6.77
  EC50: 170 nM
other
  melting point: 76.8 °C

## N#Cc1ccc(C(=O)N2CCn3nc(COc4cccc(F)c4)cc3C2)cc1F [Compound 32]
Human mGluR5a receptor; [1]
  Emax: 23%
Human mGluR5a receptor
  pEC50: 5.75
  EC50: 1780 nM
other
  melting point: > 300 °C

## N#Cc1cc(C(=O)N2CCn3nc(COc4cccc(F)c4)cc3C2)ccc1F [Compound 33]
Human mGluR5a receptor; [1]
  Emax: 71%
Human mGluR5a receptor
  pEC50: 5.98
  EC50: 1050 nM
other
  melting point: 57.1 °C

## Cc1cnc(C(=O)N2CCn3nc(COc4cccc(F)c4)cc3C2)cn1 [Compound 35]
Human mGluR5a receptor; [1]
  Emax: 36%
Human mGluR5a receptor
  pEC50: <4.52
  EC50: > 30200 nM
other
  melting point: 105.5 °C

## O=C(c1ccnnc1)N1CCn2nc(COc3cccc(F)c3)cc2C1 [Compound 36]
Human mGluR5a receptor; [1]
  Emax: 39%
Human mGluR5a receptor
  pEC50: <5.00
  EC50: > 10000 nM
other
  melting point: 282.6 °C

## O=C(c1cccc(F)c1)N1CCn2nc(COc3ccc(F)cc3)cc2C1 [Compound 39]
Human mGluR5a receptor; [1]
  Emax: 55%
Human mGluR5a receptor
  pEC50: 6.68
  EC50: 209 nM
other
  melting point: > 300 °C

## CC1CN(C(=O)c2cccc(C#N)c2)Cc2cc(COc3ccccc3)nn21 (centres unmarked) [Compound 43]
Human mGluR5a receptor; [1]
  Emax: 72%
Human mGluR5a receptor
  pEC50: 6.25
  EC50: 562 nM
other
  melting point: 88.8 °C

## CC1Cn2nc(COc3ccccc3)cc2CN1C(=O)c1ccc(F)cc1 (centres unmarked) [Compound 45]
Human mGluR5a receptor
  pEC50: 6.62
  EC50: 240 nM
Human mGluR5a receptor; [2]
  Emax: 75%
other
  melting point: 53.8 °C

## CC1Cn2nc(COc3ccccc3)cc2CN1C(=O)c1ccc(F)cc1 (centres unmarked) [Compound 46]
Human mGluR5a receptor
  pEC50: <4.52
  EC50: > 30200 nM
Human mGluR5a receptor; [2]
  Emax: 35%
other
  melting point: > 300 °C

## CC1Cn2nc(COc3ccccc3)cc2CN1C(=O)c1cccc(C#N)c1 (centres unmarked) [Compound 49]
Human mGluR5a receptor; [1]
  Emax: 52%
Human mGluR5a receptor
  pEC50: 5.56
  EC50: 2750 nM
other
  melting point: > 300 °C

## CC1Cn2nc(COc3ccccc3)cc2CN1C(=O)c1cccc(C#N)c1 (centres unmarked) [Compound 50]
Human mGluR5a receptor
  pEC50: 6.36
  EC50: 437 nM
Human mGluR5a receptor; [2]
  Emax: 59%
other
  melting point: 53.9 °C

## O=C(c1ccc(F)cc1)N1CCn2nc(COc3ccccc3)c(Cl)c2C1 [Compound 55]
Human mGluR5a receptor; [1]
  Emax: 23%
Human mGluR5a receptor
  pEC50: 5.53
  EC50: 2950 nM
other
  melting point: 136 °C

## Cc1c(COc2ccccc2)nn2c1CN(C(=O)c1ccc(F)cc1)CC2 [Compound 57]
Human mGluR5a receptor; [1]
  Emax: 44%
Human mGluR5a receptor
  pEC50: 5.52
  EC50: 3020 nM
other
  melting point: 158.5 °C

## O=C(c1ccc(F)cc1)N1CCn2nc(COc3ccccc3)cc2C1 [FPPPM, (4-fluorophenyl)(2-(phenoxymethyl)-6,7-dihydropyrazolo[1,5-a]pyrazin-5(4H)-yl)methanone]
Male Sprague-Dawley rats
  reversal of amphetamine-induced hyperlocomotion: reversal of amphetamine-induced hyperlocomotion
